Reference: patent US20030232101A1, “Topical formulations of resorcinols and cannibinoids and methods of use” (Immugen Pharmaceuticals, Inc., priority 2002, published 2003)
Converted amounts (≈) assume the structure as drawn.

How the values were obtained:
Type in all cases: cell-based
[1] = system: HIV-1; test: HeLa CD4 LTR β-gal HIV-1 attachment assay (Experimental Example 1); conditions: Human immunodeficiency virus 1, HeLa
[2] = system: HeLa CD4 LTR β-gal cells; test: Compound toxicity in the attachment assay, sister plates, MTS dye reduction
Description: (§1) At assay termination the assay plates were stained with the soluble tetrazolium-based dye MTS (CellTiter96® Reagent Promega) to determine cell viability and quantify compound toxicity. MTS is metabolized by the mitochondria enzymes of metabolically active cells to a soluble formazan product, allowing the rapid quantitative analysis cell viability and compound cytotoxicity. […] At termination of the assay 20 μL of MTS reagent was added per well and incubated for 4 h at 37° C. Adhesive plate sealers were used in place of the lids, the sealed plate was inverted several times to mix the soluble formazan product and the plate was read spectrophotometrically at 490 nm with a Molecular Devices Vmax plate reader.
The attachment assay was performed with the HeLa CD4 LTR β-gal cells available from the AIDS Research and Reference Reagent Repository. […] HeLa CD4 LTR β-gal cells express cell surface CD4 and contain an LTR β-galactosidase reporter construct. Upon infection either the Tat protein incorporated into the virion or new Tat produced following virus integration and transcription trans-activates the LTR β-gal reporter, leading to expression of the β-galactosidase enzyme. HeLa CD4 LTR β-gal cells are routinely cultured with the required selection antibiotics and screened for mycoplasma contamination. Twenty-four h prior to initiation of the assay cells were trypsinized, counted and 1×10^4 cells placed in a 0.2 cm well in media without selection antibiotics. […] A known titer of virus was then added to the wells and the incubation continued for 1 h. At the end of the incubation the wells were washed 6 times with media and the culture continued for 48 h. At 48 h the wells were washed one time with PBS and β-galactosidase enzyme expression determined by chemiluminescence per manufacturers instructions (Tropix Gal-screen™, Tropix, Bedford, Mass.). Compound toxicity was monitored on sister plates using MTS dye reduction.

[3] = system: interaction of HIV gp 120 with CD4 (HeLa CD4 LTR β-gal / HL2/3 cell fusion); test: HeLa CD4 LTR β-gal/HL2/3 HIV-1 fusion assay (Experimental Example 1); conditions: Human immunodeficiency virus 1, HeLa, 48 h, read-out: Antiviral Activity IC50
Text: This assay uses the HeLa CD4 LTR β-gal and HL2-3 cells available from the AIDS Research and Reference Reagent Repository. The fusion assay utilizes HeLa CD4 LTR β-gal cells with HL2/3 cells as a fusion partner via the interaction of HIV gp 120 with CD4. HL2/3 cells express HIV-1 Env on their cell surface and contain an HIV-1 Tat expression cassette. Upon syncytium formation and plasma membrane fusion, cytoplasmic mixing of the HL2/3 and HeLa CD4 LTR b-gal cell contents results in the transactivation of the LTR and β-Galactosidase expression is then directly related to […] cell membrane fusion. Thus, these two mechanistic assays can be used to confirm and identify a virus entry-based target of the compound. Additionally, because the attachment assay uses cell-free virus this assay can be used to show applicability to cell-free virus transmission.
(§2) Twenty-four h prior to initiation of the assay cells were trypsinized, counted and 5×10^3 cells placed in a 0.2 cm well in media without selection antibiotics. To initiate the fusion assay HeLa CD4 LTR β-gal (5×10^3 cells per 0.2 cm well) were incubated with compound for 1 h at 37° C. HL2/3 cells (5×10^3) were added to the 0.2 cm well and the incubation continued for 48 h. At 48 h the wells were washed 1 time with PBS and β-galactosidase enzyme expression determined by chemiluminescence per manufacturers instructions (Tropix Gal-screen™, Tropix, Bedford, Mass.). Compound toxicity was monitored on sister plates using MTS dye reduction.
In addition to assessing inhibition of attachment with HeLa CD4 LTR β-gal cells a virus fusion assay was perfoed using HeLa CD4 LTR β-gal and HL2/3 cells. No timed addition of compound was employed, but rather the assay was performed to verify the effects of the compounds on the HeLa CD4 LTR β-gal cells β-galactosidase expression.

[4] = system: HeLa CD4 LTR β-gal cells; test: Compound toxicity in the fusion assay, sister plates, MTS dye reduction; conditions: no timed addition; 48 h
Description: as §1, §2

[5] = system: IIIB strain of HIV-1; test: Virus attachment assay, HeLa CD4 LTR β-gal cells (Experimental Example 2); conditions: Human immunodeficiency virus 1, IIIB, HeLa, read-out: Attachment Assay IC50
Description: (§3) This assay detects compounds that block virus attachment using HeLa CD4 LTR β-gal cells. HeLa CD4 LTR β-gal cells were cultured with selection antibiotics. Twenty-four h prior to initiation of the assay, the cells were trypsinized, counted and plated in a 0.2 cm well in media without selection antibiotics. At 24 h media is removed and compound in media placed on the cells and incubated for 15 min at 37° C. A known titer of the IIIB strain of HIV-1 was then added to the wells and the incubation continued for 1 to 2 h. At the end of the incubation the wells were washed 2 times with media and the culture continued for 40 to 48 h. At termination of the assay, media is removed and β-galactosidase enzyme expression determined by chemiluminescence per manufacturer's instructions (Tropix Gal-screen, Bedford Mass.). Compound toxicity is monitored on a sister plate by XTT or MTS dye reduction. All determinations are performed in triplicate with serial_Log10 dilution of the test materials.

[6] = system: HeLa CD4 LTR β-gal cells; test: Compound toxicity in the attachment assay, sister plate, XTT or MTS (Example 2)
Description: as §3, with “materials. The virus adsorption interval of 1 to 2 h was sufficiently short that AZT, which requires phosphorylation to achieve its active tri-phosphate form (AZT-TTP), is not active in this assay.” for “materials.”

[7] = system: cell-to-cell fusion mediated by HIV-1 Env and CD4; test: Fusion assay, HeLa CD4 LTR β-gal and HL2/3 cells (Experimental Example 2); conditions: Human immunodeficiency virus 1, HL2/3, read-out: Fusion Assay IC50
Description: (§4) The fusion assay assesses the ability of compounds to block cell-to-cell fusion mediated by HIV-1 Env and CD4 expressed on separate cells. This assay is sensitive to inhibitors of both the gp 120/CD4 interaction and inhibitors of the X4 coreceptor. HeLa CD4 LTR β-gal cells were plated in microtiter wells and diluted compounds are added and allowed to incubate at 37° C. for 1 hr prior to the addition of HL2/3 cells. The incubation was then continued for 40 to 48 h, after which fusion is monitored by measurement of β-galactosidase enzyme expression, detectable by chemiluminescence (Tropix Gal-screen, Tropix, Bedford, Mass.). Compound toxicity is monitored on a sister plate using XTT or MTS dye reduction. All determinations are performed in triplicate with serial_Log10 dilution of the test materials.

[8] = system: HeLa CD4 LTR β-gal cells; test: Compound toxicity in the fusion assay, sister plate, XTT or MTS (Example 2)
Description: as §4

`COc1cc(-c2ccc(/N=N/c3ccc4c(S(=O)(=O)O)cc(S(=O)(=O)O)c(N)c4c3O)c(OC)c2)ccc1/N=N/c1ccc2c(S(=O)(=O)O)cc(S(=O)(=O)O)c(N)c2c1O` [CSB, Chicago Sky Blue, reference compound] was tested, and the IC50 ([1]; Experiment 1, pretreat 0 h) was 1.1 µg/mL (≈ 1.22 µM), the IC50 ([1]; Experiment 1, pretreat 4 h) was 1.71 µg/mL (≈ 1.89 µM) and the IC50 ([1]; Experiment 1, pretreat 24 h) was 1.3 µg/mL (≈ 1.44 µM). For the same molecule, the IC50 ([1]; Experiment 2, pretreat 0 h) was 0.17 µg/mL (≈ 0.188 µM), the IC50 ([1]; Experiment 2, pretreat 4 h) was 2.11 µg/mL (≈ 2.33 µM) and the IC50 ([1]; Experiment 2, pretreat 24 h) was 4.7 µg/mL (≈ 5.19 µM). The TC50 ([2]; Experiment 1, pretreat 0 h) was over 10 µg/mL, the TC50 ([2]; Experiment 1, pretreat 4 h) was over 10 µg/mL and the TC50 ([2]; Experiment 1, pretreat 24 h) was over 10 µg/mL. For the same molecule, the TC50 ([2]; Experiment 2, pretreat 0 h) was over 10 µg/mL, the TC50 ([2]; Experiment 2, pretreat 4 h) was over 10 µg/mL and the TC50 ([2]; Experiment 2, pretreat 24 h) was over 10 µg/mL. The IC50 [3] was 1.75 µg/mL (≈ 1.93 µM), the TC50 [4] was over 10 µg/mL and the IC50 [5] was 0.63 µg/mL (≈ 0.696 µM). For the same molecule, the “Attachment Assay TC50” value [6] was over 10 µg/mL, the IC50 [7] was 0.41 µg/mL (≈ 0.453 µM) and the “Fusion Assay TC50” value [8] was over 100 µg/mL.
